Test results taken from patent US8735384B2, “Amino heteroaryl compounds as beta-secretase modulators and methods of use” (Amgen Inc., priority 2010, dated 2014).

Tests used:
BACE1 = BACE1 (Homo sapiens, UniProt P56817); test: In vitro enzymatic BACE FRET assay; assay type: biochemical; details: beta secretase enzyme 0.2 nM, FRET substrate 50 nM, pH 4.2; read-out: BACE1 FRET assay (IC50 class)
Procedure, shortened: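 Enzyme activity was measured as release of quenching from a 50 nM fluorophore/quencher peptide spanning the cleavage site, over 1 h. This followed 1 h pre-incubation of 0.2 nM enzyme with compound dilutions at pH 4.2 (acetate, 10% DMSO, genapol). Tris addition ended the reaction before fluorescence was measured.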

[1] = system: Aβ40 in conditioned medium of cells stably expressing Amyloid Precursor Protein (APP); test: In vitro BACE cell-based assay (HEK cell assay), Aβ40 sandwich ELISA; details: Homo sapiens, HEK293, 24 h, inhibition of Aβ40, 24 h incubation, read-out: HEK cell assay (IC50 class)
Procedure, shortened: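 Aβ40 in conditioned medium measured after 24 h compound exposure (10-point series, 100 μM or 10 μM start, 0.1% DMSO) of cells stably expressing APP, seeded 40K/well. Detection: pAb40/6E10-biotin sandwich ELISA at 4°C with time-resolved europium read-out; IC50 derived from percent of control.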

Sequence of BACE1 (P56817 46-501, species assumed): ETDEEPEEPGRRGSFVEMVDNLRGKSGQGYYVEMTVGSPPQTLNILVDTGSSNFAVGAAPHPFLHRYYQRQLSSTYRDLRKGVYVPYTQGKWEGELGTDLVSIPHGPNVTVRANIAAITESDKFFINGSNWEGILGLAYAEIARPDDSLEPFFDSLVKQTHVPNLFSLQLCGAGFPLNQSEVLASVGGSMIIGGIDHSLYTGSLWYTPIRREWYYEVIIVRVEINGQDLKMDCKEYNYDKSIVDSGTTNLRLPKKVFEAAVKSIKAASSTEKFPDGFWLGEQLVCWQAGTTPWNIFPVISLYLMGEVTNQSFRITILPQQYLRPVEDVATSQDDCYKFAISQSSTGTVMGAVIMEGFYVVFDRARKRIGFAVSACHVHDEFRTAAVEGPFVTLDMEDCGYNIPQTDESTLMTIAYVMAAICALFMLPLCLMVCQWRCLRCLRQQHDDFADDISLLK

Row | IC50 (BACE1) | IC50 [1] | Compound
1 | < 100 nM | 501 to 1000 nM | Cc1cccc(C(=O)c2ccccn2)c1-c1ccc2nc(N)c(N3CCOCC3)cc2c1 [Example 157, (2-(2-amino-3-morpholinoquinolin-6-yl)-3-methylphenyl)(pyridin-2-yl)methanone]
2 | 100 to 500 nM | 1010 to 5000 nM | Cc1cccc(C(=O)c2nccs2)c1-c1ccc2nc(N)c(N3CCOCC3)cc2c1 [Example 158, (2-(2-amino-3-morpholinoquinolin-6-yl)-3-methylphenyl)(thiazol-2-yl)methanone]
3 | 501 to 1000 nM | > 5000 nM | CC(C)(C)C#Cc1ccccc1-c1ccc2nc(N)c(N3CCOCC3)cc2c1 [Example 160, 6-(2-(3,3-dimethylbut-1-ynyl)phenyl)-3-morpholinoquinolin-2-amine]
4 | < 100 nM | < 100 nM | Nc1nc2ccc(-c3c(CCc4ccccc4)cccc3C(=O)N3CCCC3)cc2cc1N1CCOCC1 [Example 162, (2-(2-amino-3-morpholinoquinolin-6-yl)-3-phenethylphenyl)(pyrrolidin-1-yl)methanone]
5 | < 100 nM | < 100 nM | CC(C)(C)CCc1cccc(C(=O)N2CCOCC2)c1-c1ccc2nc(N)c(N3CCOCC3)cc2c1 [Example 163, (2-(2-amino-3-morpholinoquinolin-6-yl)-3-(3,3-dimethylbutyl)phenyl)(morpholino)methanone]
6 | < 100 nM | > 5000 nM | Cc1cccc(OCc2ccccc2)c1-c1ccc2nc(N)c(N3CCOCC3)cc2c1 [Example 169, 6-(2-(benzyloxy)-6-methylphenyl)-3-morpholinoquinolin-2-amine]
7 | < 100 nM | 1010 to 5000 nM | Cc1cccc(OCCOC(C)C)c1-c1ccc2nc(N)c(N3CCOCC3)cc2c1 [Example 170, 6-(2-(2-isopropoxyethoxy)-6-methylphenyl)-3-morpholinoquinolin-2-amine]
8 | < 100 nM | 1010 to 5000 nM | Cc1cccc(CCC(C)(C)C)c1-c1ccc2nc(N)c(N3CCOCC3)cc2c1 [Example 172, 6-(2-(3,3-dimethylbutyl)-6-methylphenyl)-3-morpholinoquinolin-2-amine]
9 | < 100 nM | 1010 to 5000 nM | Cc1cccc(C(=O)c2cccc(Cl)c2)c1-c1ccc2nc(N)c(N3CCOCC3)cc2c1 [Example 174, (2-(2-amino-3-morpholinoquinolin-6-yl)-3-methylphenyl)(3-chlorophenyl)methanone]
10 | < 100 nM | 1010 to 5000 nM | COc1ccc(C(=O)c2cccc(C)c2-c2ccc3nc(N)c(N4CCOCC4)cc3c2)cc1 [Example 175, (2-(2-amino-3-morpholinoquinolin-6-yl)-3-methylphenyl)(4-methoxyphenyl)methanone]
11 | 100 to 500 nM | 1010 to 5000 nM | COc1cccc(C(=O)c2cccc(C)c2-c2ccc3nc(N)c(N4CCOCC4)cc3c2)c1 [Example 177, (2-(2-amino-3-morpholinoquinolin-6-yl)-3-methylphenyl)(3-methoxyphenyl)methanone]
12 | < 100 nM | 1010 to 5000 nM | Cc1ccc(C(=O)c2cccc(C)c2-c2ccc3nc(N)c(N4CCOCC4)cc3c2)cc1 [Example 178, (2-(2-amino-3-morpholinoquinolin-6-yl)-3-methylphenyl)(p-tolyl)methanone]
13 | 100 to 500 nM | 1010 to 5000 nM | CCCC(=O)c1cccc(C)c1-c1ccc2nc(N)c(N3CCOCC3)cc2c1 [Example 179, 1-(2-(2-amino-3-morpholinoquinolin-6-yl)-3-methylphenyl)butan-1-one]
14 | < 100 nM | 1010 to 5000 nM | Cc1cccc(C(=O)C2CCCCC2)c1-c1ccc2nc(N)c(N3CCOCC3)cc2c1 [Example 181, (2-(2-amino-3-morpholinoquinolin-6-yl)-3-methylphenyl)(cyclohexyl)methanone]
15 | < 100 nM | 501 to 1000 nM | Cc1cccc(C(=O)CC(C)C)c1-c1ccc2nc(N)c(N3CCOCC3)cc2c1 [Example 182, 1-(2-(2-amino-3-morpholinoquinolin-6-yl)-3-methylphenyl)-3-methylbutan-1-one]

Further lines, the molecule ahead of its results:

Row | Compound | IC50 (BACE1) | IC50 [1]
16 | Nc1nc2ccc(-c3ccccc3C(=O)CC3CCCC3)cc2cc1N1CCOCC1 [Example 156, 1-(2-(2-amino-3-morpholinoquinolin-6-yl)phenyl)-2-cyclopentylethanone] | < 100 nM | 1010 to 5000 nM
17 | Cc1cccc(C(=O)c2ncccc2Cl)c1-c1ccc2nc(N)c(N3CCOCC3)cc2c1 [Example 159, (2-(2-amino-3-morpholinoquinolin-6-yl)-3-methylphenyl)(3-chloropyridin-2-yl)methanone] | < 100 nM | 501 to 1000 nM
18 | Nc1nc2ccc(-c3c(C#Cc4ccccc4)cccc3C(=O)N3CCCC3)cc2cc1N1CCOCC1 [Example 161, (2-(2-amino-3-morpholinoquinolin-6-yl)-3-(phenylethynyl)phenyl)(pyrrolidin-1-yl)methanone] | < 100 nM | 501 to 1000 nM
19 | CC(C)(C)CCc1cccc(C(=O)N2CCC2)c1-c1ccc2nc(N)c(N3CCOCC3)cc2c1 [Example 164, (2-(2-amino-3-morpholinoquinolin-6-yl)-3-(3,3-dimethylbutyl)phenyl)(azetidin-1-yl)methanone] | < 100 nM | < 100 nM
20 | CC(C)(C)CCc1cccc(C(=O)N2CCCC2)c1-c1ccc2nc(N)c(N3C[C@@H]4C[C@H]3CO4)cc2c1 [Example 165, (2-(2-amino-3-((1S,4S)-2-oxa-5-azabicyclo[2.2.1]heptan-5-yl)quinolin-6-yl)-3-(3,3-dimethylbutyl)phenyl)(pyrrolidin-1-yl)methanone] | < 100 nM | < 100 nM
21 | CC(C)(C)CCc1cccc(C(=O)N2CC[C@H](F)C2)c1-c1ccc2nc(N)c(N3CCOCC3)cc2c1 [Example 166, (S)-(2-(2-amino-3-morpholinoquinolin-6-yl)-3-(3,3-dimethylbutyl)phenyl)(3-fluoropyrrolidin-1-yl)methanone] | < 100 nM | < 100 nM
22 | Nc1nc2ccc(-c3c(C#CC4CCCCC4)cccc3C(=O)N3CCCC3)cc2cc1N1CCOCC1 [Example 167, (2-(2-amino-3-morpholinoquinolin-6-yl)-3-(cyclohexylethynyl)phenyl)(pyrrolidin-1-yl)methanone] | < 100 nM | < 100 nM
23 | Nc1nc2ccc(-c3c(CCC4CCCCC4)cccc3C(=O)N3CCCC3)cc2cc1N1CCOCC1 [Example 168, (2-(2-amino-3-morpholinoquinolin-6-yl)-3-(2-cyclohexylethyl)phenyl)(pyrrolidin-1-yl)methanone] | < 100 nM | < 100 nM
24 | Cc1cccc(Oc2ccccc2)c1-c1ccc2nc(N)c(N3CCOCC3)cc2c1 [Example 171, 6-(2-methyl-6-phenoxyphenyl)-3-morpholinoquinolin-2-amine] | < 100 nM | > 5000 nM
25 | Cc1cccc(C(=O)c2cccc(C)c2-c2ccc3nc(N)c(N4CCOCC4)cc3c2)c1 [Example 173, (2-(2-amino-3-morpholinoquinolin-6-yl)-3-methylphenyl)(m-tolyl)methanone] | < 100 nM | 1010 to 5000 nM
26 | Cc1cccc(C(=O)c2ccc(Cl)cc2)c1-c1ccc2nc(N)c(N3CCOCC3)cc2c1 [Example 176, (2-(2-amino-3-morpholinoquinolin-6-yl)-3-methylphenyl)(4-chlorophenyl)methanone] | < 100 nM | 1010 to 5000 nM
27 | CCCCC(=O)c1cccc(C)c1-c1ccc2nc(N)c(N3CCOCC3)cc2c1 [Example 180, 1-(2-(2-amino-3-morpholinoquinolin-6-yl)-3-methylphenyl)pentan-1-one] | < 100 nM | 1010 to 5000 nM
